Here are results for 2 molecules from patent US8258119B2, “Anti-cancer drugs and uses relating thereto for metastatic malignant melanoma and other cancers” (Kasina Laila Innova Pharmaceuticals, priority 2008, dated 2012).

In brackets after ≈: the same amount, converted by molar mass.

The subject of series [1] is metastatic malignant melanoma. The note with it: clinical setting; cited from earlier work.
For series [2] the following is noted: cited from earlier work.
The test system of series [3] is B16F0 mouse melanoma cells. The series can be described thus: LDH leakage cytotoxicity assay in B16F0 cells. Format: cell-based. The note with it: treatment concentration 100 μg/ml. The method, then:
(§1) From the data obtained from the MTT assay (Table J), compound 1, compound 6 and compound 13 have been selected and their cytotoxicity potential has been further validated in LDH leakage assay. […] Cytotoxicity potential of DTIC and its derivative compounds were evaluated by measuring the leaked lactate dehydrogenase (LDH) into the culture supernatant (LDH Cytotoxicity Detection Roche Applied Sciences, Germany). The leaked LDH is directly proportional to the cell damage done by the cytotoxic compounds. In brief, cells were treated with test compounds at various concentrations and incubated for 48 h. Vehicle control culture wells received only a maximum of 0.5% DMSO. The cell free culture supernatants were mixed with catalyst and dye solution and allowed to incubate for 15 min at room temperature. Finally, the reaction was stopped and the optical density was measured at 492 nm in a microplate reader (BioRad, USA). […]
(§2) Comparative cytotoxicity potential of DTIC and Compound 6 on B16F0 mouse melanoma cells and A375 human melanoma cells were further evaluated by measuring the leaked lactate dehydrogenase (LDH) into the culture supernatant (LDH Cytotoxicity Detection Kit^Plus, Roche Applied Sciences, Germany), following the methodology described earlier (Example 20). […]
(In general: Release of lactate dehydrogenase indicates damage to the cell membrane.)

Series [4] has as its system A375 human melanoma cells. As to the kind of experiment: LDH leakage cytotoxicity assay in A375 cells. Format: cell-based. The note with it: treatment concentration 100 μg/ml. The method, then:
as §1, §2

Series [5] relates to MIA-PaCa2 human pancreas tumor cells. As to the kind of experiment: MTT cell proliferation assay in MIA-PaCa2 cells. The class given is cell-based. The note with it: MIA PaCa-2, read-out: 50% of inhibitory concentration, IC50 MIA-PaCa2. The method, then: (§3) MTT [3-(4,5-dimethylthiazol-2-yl)-2,5-diphenyltetrazolium bromide] incorporation based cell proliferation assay was performed using standard procedure with some modifications (38). The cytotoxic efficacy of the test compounds were evaluated in human malignant melanoma A2058 cells by MTT cell proliferation assay kit (Roche Applied Sciences, Germany). The assay was carried out according to the instruction provided by the vendor. Briefly, equal numbers of cells was plated in 96-well flat-bottomed plates in 100 μl of medium and were exposed to either DTIC or its derivative compounds at various concentrations up to 150 μg/ml for a period of three days. Vehicle control culture wells received only a maximum of 0.5% DMSO. Thereafter, 0.5 mg/ml of MTT reagent was added to each well and the microplate was incubated further for 4 h at 37° C. in presence of 5% CO2. Finally, the cells were solubilized by adding solubilizing solution and allowed to incubate at 37° C. overnight. After complete solubilization of the formazan crystals the absorbance was read at 540 nm in a microplate reader (BioRad, USA). The results (mean OD±SD) obtained from quadruplicate wells were used in calculation to determine the inhibition of cell proliferation (50% inhibitory concentration, IC50) of the test compounds.
Anti-tumor growth potential of Compound 1 and Compound 6 were evaluated in MCF-7 human breast tumor cells, MIA-PaCa2 human pancreas tumor cells and DU145 human prostate tumor cells by using MTT based cell proliferation studies as described earlier (example 19). The results (mean OD±SD) obtained from quadruplicate wells were used in calculation to determine the inhibition of cell proliferation (50% of inhibitory concentration, IC50) of the test compounds (Table 4).
A general note: Tetrazolium dyes change colour on reduction, which living cells bring about.

The conditions of series [6]: at therapeutic concentrations; cited from earlier work.
Series [7] has as its system A375 human melanoma cells. As to the kind of experiment: MTT cell proliferation assay in A375 cells. Particulars: A-375, 72 h, 3 days, read-out: 50% of inhibitory concentration, IC50 in A375 cells. Format: cell-based. As for the experimental part: as §3, with “Thereafter, 0.5 mg/ml of MTT reagent was added to each well and the microplate was incubated further for 4 h at 37° C. in presence of 5% CO2. Finally, the cells were solubilized by adding solubilizing solution and allowed to incubate at 37° C. overnight.” left out, “The results (mean OD±SD) obtained from quadruplicate wells were used in calculation to determine the inhibition of cell proliferation (50% inhibitory concentration, IC50) of the test compounds.” left out
The comparative anti-tumor growth potential of DTIC and Compound 6 was further tested in B16F0 mouse melanoma cells and A375 human melanoma cells by using MTT based cell proliferation assay following the methodology described earlier (Example 19). […] After adding the MTT reagent, the cells were solubilized and the intracellular formazan formation was calorimetrically read at 540 nm in a microplate reader (BioRad, USA). […]

Series [8] has as its system Human umbilical vein endothelial cells (HUVEC). The series can be described thus: Endothelial cell migration assay. The note with it: 18 h. The class given is cell-based. The method, then: The methodology of endothelial cell migration assay was essentially the same as described earlier with some modifications (43). FALCON™ Cell Culture inserts (Becton Dickinson, USA) with 8 μm-pores in their PET membrane was coated with 0.1 mg/ml of collagen. Human umbilical vein endothelial cells (HUVEC) were added to the cell culture inserts (Becton Dickinson) at a density of 5×10^4 cells/insert. Cells were allowed to migrate through the insert for 18 h in presence of different concentrations of either DTIC or Compound 6. The control culture containing migration assembly received only 0.1% DMSO. […] The membranes of the inserts were then mounted on glass slides. Cells migrated through the membrane pores were counted in 20 random fields under Nikon Eclipse TS 100 microscope at 20× objective.

Setting [9] is: patient with renal and hepatic dysfunctions.

As to `CN(C)/N=N/c1[nH]cnc1C(N)=O` [DTIC, 5-(3,3-dimethyl-1-trizeno)-imidazole-4-carboxamide, reference compound], in series [1], the “Complete Response (CR) rate” value was “below 10%”. The “average cumulative excretion of unchanged DTIC in the urine” value in [2] (in six hours) is 40 % of the injected dose. For the same molecule, in series [2] (setting [9]), the initial half life was 55 min and the terminal half life is 432 min. In series [2] (plasma, biphasic), the “initial half life of disappearance from the plasma” value was 19 min and the “terminal half life of disappearance from the plasma” value is listed as “five”. Besides, the “% increase in LDH secretion with respect to vehicle treated control in B16 F0 cells” value in [3] was found to be 5.7%. Moreover, the “% increase in LDH secretion with respect to vehicle treated control in A375 cells” value in series [4] is given as 246%. Further, in series [5], the IC50 stood at 203 µg/mL (≈ 1110 µM). The “binding to human plasma protein” value in [6] is “not appreciably bound”.
In the case of `CN(C)/N=N/c1ccsc1C(=O)O` [Compound 6, 3-[(dimethylamino)diazenyl]thiophene-2-carboxylic acid], the melting point lay within 108 to 110 °C. In addition, the IC50 in series [7] was determined as 46.5 µg/mL (≈ 233 µM). Moreover, the “% increase in LDH secretion with respect to vehicle treated control in B16 F0 cells” value in [3] is given as 61.5%. For the same molecule, the “% increase in LDH secretion with respect to vehicle treated control in A375 cells” value in series [4] turned out to be 331%. In addition, the IC50 in series [5] turned out to be 81.9 µg/mL (≈ 411 µM). The endothelial cell migration entry in series [8] is “significant inhibition of migration”.

A word on the melting point: it is the temperature of the solid-liquid transition.
